The values that follow come from publication PMC8032764 (Scientific Reports, 2021).

One data set addresses T1, human α4β3γ2 (Homo sapiens, UniProt P18507+P48169).
T1 construct: expressed in transfected cells; host or cells: HEK293-EBNA, transient
The data set is described as follows: [3H]-Ro 15-4513 competition binding. To be noted: at > 3 µM; data not shown. As to the method:
(§1) HEK293-EBNA cells adapted to grow in suspension were transiently transfected with the plasmids containing the desired GABAA receptor subunit cDNAs at α, β, γ, 1:1:2 ratio using XtremeGENE Q2 (Cat. No. 03045595001, Roche Applied Science, RAS, Rotkreuz, Switzerland) as previously described. GABAA α1β2γ2, α2β3γ2, α3β3γ2, α4β3γ2, α5β3γ2 and α6β3γ2 receptor subtypes were expressed in this system. 48 h post transfection, the cells were harvested and washed three times with cold PBS and frozen at − 80 °C.
(§2) IC50 values were derived from the inhibition curve and Ki values were calculated as described below.

For another data set, the target named is T2, human α6β3γ2 (Homo sapiens, UniProt P18507+Q16445).
T2 construct: expressed in transfected cells; host or cells: HEK293-EBNA, transient
The data set is described as follows: [3H]-Ro 15-4513 competition binding. To be noted: at > 3 µM; data not shown. As to the method: as §1, §2

For another data set, the system named is T3, Histamine H1.
T3 construct: host or cells: HEK-293
The experiment in a line: Cerep binding. Also noted: species or system human. To be noted: 10 μM; [3H]pyrilamine; hum. recomb. (HEK-293).

The test system of a further data set is T4, Muscarinic M2.
T4 construct: host or cells: CHO
The data set is described as follows: Cerep binding. Also noted: species or system human. To be noted: 10 μM; [3H]AF-DX 384; hum. recomb. (CHO).

Data set [1] has as its system Platelet derived growth factor (PDGF). The data set is described as follows: Cerep binding. To be noted: 10 μM; [125I]PDGF BB; mouse, Balb/c 3T3 cells.
The next data set relates to T5, Neurokinin NK3.
T5 construct: purchased Eurofins Cerep
The data set is described as follows: Cerep binding. Details: species or system human. To be noted: 10 μM; [3H]SR 142801; hum. recomb. (CHO).

A further data set has as its system T6, Neuropeptide Y2.
T6 construct: purchased Eurofins Cerep
The experiment in a line: Cerep binding. Also noted: species or system human. To be noted: 10 μM; [125I]peptide YY; hum., KAN-TS cells.

The test system of another data set is T7, Opioid κ.
T7 construct: host or cells: CHO
The experiment in a line: Cerep binding. Also noted: species or system human. To be noted: 10 μM; [3H]U 69593; hum. recomb. (CHO).

The subject of a further data set is male Lister Hooded rats. The experiment in a line: Diazepam-induced spatial learning impairment in the Morris water maze. Format: in vivo, rat. As for the experimental part:
The current study used a modified version of the standard acquisition protocol, in which pre-trained rats had to learn to locate a new platform position during six trials on the test day, as described previously. Subjects were semi-randomly divided into treatment groups based on their performance on the last training day. A computer tracking system (HVS Image Ltd, UK) was used to analyse each rat’s swim path on-line.
Latency, pathlength and swim speed (Supplementary Fig. S2) were analysed with a one-factor ANOVA. For the probe trial, to determine whether each treatment group had learned the spatial position of the platform, within-subjects ANOVA was used to compare percent time spent in the platform quadrant with the left, right and opposite quadrants. All significant cases were followed by a post hoc Newman–Keuls test. In addition, a comparison between vehicle treated and diazepam-treated rats on the percent time spent in the platform quadrant was analysed using an unpaired t-test.

A further data set concerns male Sprague-Dawley rats. The experiment in a line: Prepulse inhibition. Format: in vivo, rat. To be noted: 1, 3 and 10 mg/kg p.o., 30 min prior to testing. As for the experimental part:
intensities (72, 76, 80, 84 dB) at total plasma concentrations of 56 ± 20, 169 ± 20, and […]
Compound administered at 1, 3 and 10 mg/kg p.o. to male Sprague-Dawley rats 30 min prior to testing. Bars indicate mean percent prepulse inhibition (% PPI) ± SEM; 10 animals per dose group. Background noise: 68 dB. Startle pulse: 12 0 dB. For full methods refer to:
Nordquist et al. (2008). Effects of aripiprazole/OPC-14597 on motor activity, pharmacological models of psychosis, and brain activity in rats. Neuropharmacology , 54,405-416.
Animals were euthanized at the end of testing and plasma samples were collected approximately 60 min post administration; n = 4 rats per group.
(1 picture or pasted object on this page, not shown here)

In another data set the test system is healthy male subjects. The experiment in a line: Study BP25129 single-ascending dose, safety EEG. The data set is classed as in vivo, human. As to the method:
CLINICAL INFORMATION: Safety EEG data from Phase I studies in healthy volunteers
1) Study BP25129 Single-Ascending Dose (SAD) in Healthy Volunteers
Single doses of between 1.5 mg and 1250 mg were administered to groups of eight healthy male subjects (age range 18–44 years) per dose level (6 received active drug, two received placebo). All nine planned cohorts in the Part 1 SAD study were completed, and all subjects completed dosing as planned.
Food Effect (FE) Cohort: Eight subjects were enrolled, all received active drug as planned on two separate occasions, with food condition (Fed or Fasted) on each occasion determined in a randomized manner. All subjects enrolled in the FE portion of Part 1 completed the study.
EEG assessments were made in Cohorts 6, 8, 9 and FE Cohort only:
• Cohort 6: 160 mg (n dosed: 6)
• Cohort 8: 660 mg (n dosed: 6)
• Cohort 9: 1250 mg (n dosed: 6)
• Food effect Cohort: 660 mg ([…]) […]
On the day of dosing, an EEG in the resting, awake state was recorded starting about 1 hour prior to dosing and ending approximately 7 h after dosing. EEG results were recorded either as normal, normal variant or abnormal variant. If an abnormal variant measurement was recorded, then the Investigator could continue recordings as appropriate until a return to […]
participants had several EEGs and several participants had sleep assessments with EEG that were also evaluated: […]

The mark [2] stands for this setting: 3 and 10 mg/kg p.o. + diazepam 6 mg/kg i.p.

Molecules are shown by their SMILES.

On to `Cc1onc(-c2ccc(F)cc2)c1COc1ccc(C(=O)N2CCS(=O)(=O)CC2)cn1` [basmisanil], for which the binding entry on human α4β3γ2 and at human α6β3γ2 was “no binding” in each case. Further, the “% Inhibition” value is listed as 10% in the data set on Histamine H1; 13% in the data set with Muscarinic M2; -17% in [1]; -9% in the data set with Neurokinin NK3; 7% with Neuropeptide Y2; 13% with Opioid κ. In addition, in the data set on male Lister Hooded rats (10 mg/kg p.o. + diazepam 6 mg/kg i.p., 30 min before test), the “probe trial, percent time spent in the previous platform quadrant” value is reported as “attenuated the diazepam-induced deficit”. In the data set on male Lister Hooded rats (setting [2]), the “latency and pathlength across six learning trials” value was “did not significantly reduce the diazepam-induced increase in latency and pathlength”. Besides, the swim speed result in the data set with male Lister Hooded rats (setting [2]) was “no effect on swim speed”. Further, the “prepulse inhibition induced by prepulse intensities 72, 76, 80, 84 dB” value in the data set on male Sprague-Dawley rats was “does not impair prepulse inhibition”. The tolerability result in the data set with healthy male subjects (single doses 1.5 mg to 1250 mg) is “well tolerated”. Also, in the data set on healthy male subjects (single doses of 160 mg, 660 mg and 1250 mg), the EEG assessments entry is “did not reveal any findings of clinical”.

The term % Inhibition denotes the drop in the measured response relative to a control, in per cent.
